ChEMBL document CHEMBL1201862, “PubChem BioAssay data set” (2004)
The source made the active and inactive calls.

What was measured:
[1] = target: T1, Calpain-2 catalytic subunit (Sus scrofa, UniProt P43367); experiment: pig calpain II inhibitor potency, dose response, biochemical, fluorogenic peptide substrate (AID 1420); type: functional
T1 sequence (P43367 whole entry): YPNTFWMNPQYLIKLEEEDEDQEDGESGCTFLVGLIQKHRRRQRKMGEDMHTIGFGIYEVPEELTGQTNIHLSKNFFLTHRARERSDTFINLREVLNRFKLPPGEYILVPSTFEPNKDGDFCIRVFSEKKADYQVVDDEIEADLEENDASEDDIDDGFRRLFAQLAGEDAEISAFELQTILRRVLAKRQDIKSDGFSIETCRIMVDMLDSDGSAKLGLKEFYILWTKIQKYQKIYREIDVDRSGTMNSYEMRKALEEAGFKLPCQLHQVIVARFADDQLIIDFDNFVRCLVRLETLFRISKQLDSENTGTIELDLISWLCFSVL

[2] = target: T2, Leucine aminopeptidase (Plasmodium falciparum 3D7, UniProt Q8IL11); experiment: P. falciparum M17LAP inhibitors, primary screen, biochemical, fluorogenic H-Leu-NHMec substrate, 1536-well (AID 1619); type: functional
T2 sequence (Q8IL11 whole entry): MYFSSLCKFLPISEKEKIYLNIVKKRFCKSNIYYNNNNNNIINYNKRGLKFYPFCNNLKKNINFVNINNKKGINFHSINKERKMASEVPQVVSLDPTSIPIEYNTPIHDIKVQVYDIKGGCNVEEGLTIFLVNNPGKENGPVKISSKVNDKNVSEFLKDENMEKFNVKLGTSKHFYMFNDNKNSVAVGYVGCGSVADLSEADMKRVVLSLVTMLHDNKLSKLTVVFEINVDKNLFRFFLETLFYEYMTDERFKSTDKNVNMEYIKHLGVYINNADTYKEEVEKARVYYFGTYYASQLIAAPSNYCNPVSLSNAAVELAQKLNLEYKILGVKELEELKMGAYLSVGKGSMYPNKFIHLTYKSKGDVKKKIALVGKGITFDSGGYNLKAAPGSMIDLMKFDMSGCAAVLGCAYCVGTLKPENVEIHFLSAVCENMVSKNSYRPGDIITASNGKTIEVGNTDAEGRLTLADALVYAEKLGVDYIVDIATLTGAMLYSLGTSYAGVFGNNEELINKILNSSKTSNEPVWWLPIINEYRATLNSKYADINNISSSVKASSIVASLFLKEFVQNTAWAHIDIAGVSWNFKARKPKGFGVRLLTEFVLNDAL

[3] = target: Cytochrome P450 2C19 (Homo sapiens, UniProt P33261); experiment: Cytochrome panel assay with activity outcomes. Panel member name: p450-cyp2c19 Compounds with AC50 equal or less than 10 uM are considered active; type: functional; details: read-out: AC50
[4] = tested on: Streptococcus sp. 'group A'; experiment: growth inhibition of control SK(-) GAS strain, dose response, counter-screen for streptokinase expression inhibitor project, luminescence, kanamycin, BacTiterGlo, confirmation (AID 1900); type: functional, organism-based
[5] = target: T3, Streptokinase A (Streptococcus pyogenes serotype M1, UniProt P10520); experiment: S. pyogenes streptokinase expression inhibitors, potency, dose response, plasminogen activation absorbance, OD405 (AID 1914); type: functional, Streptococcus pyogenes M1 GAS;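 further: secreted streptokinase activity via plasminogen activation per viability signal from cell pellet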
T3 sequence (P10520 whole entry): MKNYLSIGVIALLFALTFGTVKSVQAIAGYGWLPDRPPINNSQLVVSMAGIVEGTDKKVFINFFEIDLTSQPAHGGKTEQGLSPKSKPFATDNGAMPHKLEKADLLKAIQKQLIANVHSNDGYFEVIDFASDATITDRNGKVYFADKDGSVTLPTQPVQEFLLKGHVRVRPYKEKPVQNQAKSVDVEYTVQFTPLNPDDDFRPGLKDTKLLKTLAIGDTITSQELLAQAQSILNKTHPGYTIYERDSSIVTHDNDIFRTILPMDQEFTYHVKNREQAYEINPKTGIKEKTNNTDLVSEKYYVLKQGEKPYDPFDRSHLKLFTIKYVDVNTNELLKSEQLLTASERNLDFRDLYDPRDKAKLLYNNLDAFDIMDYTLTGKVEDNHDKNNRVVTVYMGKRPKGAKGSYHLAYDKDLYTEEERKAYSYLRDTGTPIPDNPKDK

[6] = growth suppression of PTEN-null colon cells, dose response, cell-based, HCT116 PTEN knockout (AID 1047); type: functional;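 further: HCT116 colon tumor cells with PTEN knocked out; cells exposed to compound for 60 hours before readout; potency for loss of cell viability measured by luminescence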
[7] = growth suppression of beta-catenin-knockout colon cells, dose response, cell-based, HCT116, human colon tumor (AID 1045); type: functional;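 further: HCT116 colon tumor cells with beta catenin knocked out; cells exposed to compound for 60 hours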
[8] = tested on: Streptococcus; experiment: Group A Streptococcus viability loss, dose response, counter-screen for streptokinase expression inhibitor project, luminescence, BacTiterGlo (AID 1915); type: functional, organism-based;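 further: potency for reduction of bacterial viability or growth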
[9] = target: Large T antigen (Simian virus 40, UniProt P03070); type: functional, Betapolyomavirus macacae;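 further: Confirmatory-stage PubChem screen for compounds that inhibit SV40 T antigen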
[10] = target: Cytochrome P450 2D6 (Homo sapiens, UniProt P10635);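 further: CYP2D6 member of a cytochrome P450 panel assay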
[11] = target: Nonstructural protein 1 (Influenza A virus, UniProt Q194T2); type: functional, Influenza A virus (A/California/07/2009(H1N1))
[12] = target: T4, RNA-binding protein pos-1 (Caenorhabditis elegans, UniProt G5EF15); experiment: inhibitors of POS-1/mex-3 RNA binding, dose response, biochemical, fluorescence polarization (AID 1964);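 further: purified POS-1 fused to maltose binding protein made in E. coli; potency of compounds blocking POS-1 binding to fluorescent RNA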
T4 sequence (G5EF15 whole entry): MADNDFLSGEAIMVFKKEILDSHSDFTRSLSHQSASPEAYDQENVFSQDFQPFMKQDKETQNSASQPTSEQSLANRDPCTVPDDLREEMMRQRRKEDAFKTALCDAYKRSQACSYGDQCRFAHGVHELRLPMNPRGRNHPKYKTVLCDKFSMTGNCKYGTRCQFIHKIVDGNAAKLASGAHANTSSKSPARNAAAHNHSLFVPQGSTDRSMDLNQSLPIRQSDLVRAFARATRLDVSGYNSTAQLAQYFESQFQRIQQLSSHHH

[13] = target: T5, Zinc finger protein mex-5 (Caenorhabditis elegans, UniProt Q9XUB2); experiment: MEX-5/TCR-2 RNA interaction inhibitors, dose response, biochemical, C. elegans, fluorescence polarization (AID 1960)
T5 sequence (Q9XUB2 whole entry): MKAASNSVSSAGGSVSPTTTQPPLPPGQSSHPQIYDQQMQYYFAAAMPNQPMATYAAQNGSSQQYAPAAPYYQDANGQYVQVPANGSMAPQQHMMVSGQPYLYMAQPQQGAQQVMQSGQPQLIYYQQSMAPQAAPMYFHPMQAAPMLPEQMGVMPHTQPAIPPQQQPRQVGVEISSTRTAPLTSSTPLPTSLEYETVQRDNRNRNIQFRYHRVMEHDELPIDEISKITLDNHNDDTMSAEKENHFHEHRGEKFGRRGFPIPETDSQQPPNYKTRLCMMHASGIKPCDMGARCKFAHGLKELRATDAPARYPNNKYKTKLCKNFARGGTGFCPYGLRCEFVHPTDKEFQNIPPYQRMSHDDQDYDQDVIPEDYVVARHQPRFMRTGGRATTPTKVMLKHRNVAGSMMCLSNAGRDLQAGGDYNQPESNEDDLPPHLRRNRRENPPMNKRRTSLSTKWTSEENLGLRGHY

[14] = inhibitors of intracellular T. cruzi replication, confirmation, NIH3T3 host cells, beta-gal luminescence (AID 2044); type: functional, cell-based;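 further: intracellular parasites grown in NIH/3T3 mouse fibroblasts as host cells; luminescent beta-galactosidase reporter signal from transgenic T. cruzi replicating inside host cells; inhibitors lower the luminescence signal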
[15] = cytotoxicity toward NIH3T3 fibroblasts, dose response, counter-screen, cell-based, ATP luminescence, mouse fibroblasts (AID 2010); type: functional;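 further: cells exposed to compound for about 90 hours before reading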
[16] = target: T6, Protein skinhead-1 (Caenorhabditis elegans, UniProt P34707); type: functional
T6 sequence (P34707 whole entry): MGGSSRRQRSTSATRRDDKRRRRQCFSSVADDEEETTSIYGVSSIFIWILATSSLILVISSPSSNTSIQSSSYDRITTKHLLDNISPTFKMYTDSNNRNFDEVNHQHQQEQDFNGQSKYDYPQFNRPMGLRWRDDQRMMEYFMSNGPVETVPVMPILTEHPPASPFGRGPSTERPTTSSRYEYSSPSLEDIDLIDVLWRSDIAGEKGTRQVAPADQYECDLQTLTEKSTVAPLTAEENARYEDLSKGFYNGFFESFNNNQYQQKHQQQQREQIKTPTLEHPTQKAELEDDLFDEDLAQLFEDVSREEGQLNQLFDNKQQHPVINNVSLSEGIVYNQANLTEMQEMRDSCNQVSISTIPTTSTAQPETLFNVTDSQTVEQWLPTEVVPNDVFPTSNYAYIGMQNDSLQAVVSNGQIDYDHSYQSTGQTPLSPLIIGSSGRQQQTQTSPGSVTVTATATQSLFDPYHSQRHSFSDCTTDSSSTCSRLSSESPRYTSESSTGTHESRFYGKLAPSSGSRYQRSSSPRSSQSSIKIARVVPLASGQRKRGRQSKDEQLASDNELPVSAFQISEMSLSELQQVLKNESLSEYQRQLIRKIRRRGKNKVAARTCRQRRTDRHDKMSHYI

[17] = target: FAD-linked sulfhydryl oxidase ALR (Homo sapiens, UniProt P55789); experiment: inhibitors of human ALR sulfhydryl oxidase, dose response, biochemical, H2O2 detection, luminescence, cherry-pick (AID 493248)
Chain of FAD-linked sulfhydryl oxidase ALR (P55789 whole entry): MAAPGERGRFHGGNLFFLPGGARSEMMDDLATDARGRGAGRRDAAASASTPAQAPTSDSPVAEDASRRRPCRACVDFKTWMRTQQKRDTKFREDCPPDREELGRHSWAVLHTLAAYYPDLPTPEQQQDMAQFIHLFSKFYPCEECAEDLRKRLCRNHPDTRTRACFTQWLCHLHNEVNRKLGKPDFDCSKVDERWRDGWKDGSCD

Chain of Large T antigen (P03070 whole entry): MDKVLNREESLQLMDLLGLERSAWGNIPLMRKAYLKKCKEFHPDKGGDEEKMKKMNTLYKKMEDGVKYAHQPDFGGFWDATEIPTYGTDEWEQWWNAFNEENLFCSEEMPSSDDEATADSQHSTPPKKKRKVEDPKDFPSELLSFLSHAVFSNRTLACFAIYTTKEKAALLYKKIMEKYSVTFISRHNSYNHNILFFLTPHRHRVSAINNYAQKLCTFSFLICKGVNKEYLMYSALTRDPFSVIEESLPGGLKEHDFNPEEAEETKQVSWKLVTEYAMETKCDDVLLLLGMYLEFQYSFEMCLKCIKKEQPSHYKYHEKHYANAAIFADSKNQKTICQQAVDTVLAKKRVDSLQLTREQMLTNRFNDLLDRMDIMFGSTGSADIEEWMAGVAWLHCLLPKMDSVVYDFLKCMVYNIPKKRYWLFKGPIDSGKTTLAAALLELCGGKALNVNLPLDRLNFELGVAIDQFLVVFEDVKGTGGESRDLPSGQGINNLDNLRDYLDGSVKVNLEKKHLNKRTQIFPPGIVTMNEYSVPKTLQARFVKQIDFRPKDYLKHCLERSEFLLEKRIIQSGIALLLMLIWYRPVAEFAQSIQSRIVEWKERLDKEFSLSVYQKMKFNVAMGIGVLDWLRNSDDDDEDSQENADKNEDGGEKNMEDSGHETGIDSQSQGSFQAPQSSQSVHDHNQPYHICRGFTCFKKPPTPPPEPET
Chain of Nonstructural protein 1 (Q194T2 whole entry, the tested form may be a part): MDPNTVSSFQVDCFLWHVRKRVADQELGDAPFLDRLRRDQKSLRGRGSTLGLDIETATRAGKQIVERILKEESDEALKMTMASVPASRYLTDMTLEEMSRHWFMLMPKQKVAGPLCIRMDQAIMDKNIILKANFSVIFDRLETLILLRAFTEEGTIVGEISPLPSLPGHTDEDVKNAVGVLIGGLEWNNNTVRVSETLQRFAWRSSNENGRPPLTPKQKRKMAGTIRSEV
Chain of Cytochrome P450 2C19 (P33261 whole entry): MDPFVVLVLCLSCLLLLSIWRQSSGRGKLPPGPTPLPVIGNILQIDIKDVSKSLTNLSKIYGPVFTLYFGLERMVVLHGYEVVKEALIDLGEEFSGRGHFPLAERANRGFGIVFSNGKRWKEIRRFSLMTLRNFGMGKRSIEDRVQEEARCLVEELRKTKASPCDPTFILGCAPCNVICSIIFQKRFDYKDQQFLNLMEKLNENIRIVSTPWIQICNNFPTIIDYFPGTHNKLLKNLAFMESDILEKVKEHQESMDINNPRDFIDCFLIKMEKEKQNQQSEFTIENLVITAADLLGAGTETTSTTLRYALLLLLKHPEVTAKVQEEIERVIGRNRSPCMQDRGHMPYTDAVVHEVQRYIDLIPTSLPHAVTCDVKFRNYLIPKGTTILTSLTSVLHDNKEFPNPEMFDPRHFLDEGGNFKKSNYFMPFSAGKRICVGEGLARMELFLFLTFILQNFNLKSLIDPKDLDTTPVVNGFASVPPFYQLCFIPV
Chain of Cytochrome P450 2D6 (P10635 whole entry): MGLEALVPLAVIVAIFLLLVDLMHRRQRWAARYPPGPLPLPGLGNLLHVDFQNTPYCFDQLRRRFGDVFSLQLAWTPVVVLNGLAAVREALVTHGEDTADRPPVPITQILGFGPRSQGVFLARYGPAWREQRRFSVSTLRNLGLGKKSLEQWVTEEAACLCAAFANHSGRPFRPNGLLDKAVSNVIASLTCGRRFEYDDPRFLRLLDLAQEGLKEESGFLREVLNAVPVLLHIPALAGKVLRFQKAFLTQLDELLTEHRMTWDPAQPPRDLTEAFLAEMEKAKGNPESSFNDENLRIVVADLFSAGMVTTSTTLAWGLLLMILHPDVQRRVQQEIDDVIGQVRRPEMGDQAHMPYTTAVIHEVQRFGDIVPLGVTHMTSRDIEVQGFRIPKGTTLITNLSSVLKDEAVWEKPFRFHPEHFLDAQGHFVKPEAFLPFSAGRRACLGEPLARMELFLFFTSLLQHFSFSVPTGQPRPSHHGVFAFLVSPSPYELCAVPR

SMILES | IC50 [1] | IC50 [2] | also measured
O=C(CCCOc1ccc(Cl)cc1Cl)N1CCc2ccccc2C1 | 7.32 µM (not active) | – | –
O=C(CN1C(=O)c2ccccc2S1(=O)=O)NC1CC2CCC1C2 (stereo not drawn) | – | 75.4 µM (active) | –
O=C(CSc1nc[nH]n1)Nc1nnc(-c2ccccc2)s1 | – | 43.1 µM (active) | –
CCOC(=O)c1c(NC(=O)C2C3CCC(O3)C2C(=O)O)sc(C)c1-c1ccc(F)cc1 (stereo not drawn) | – | 8.78 µM (active) | –
c1nc(NCc2ccc3c(c2)OCO3)n[nH]1 | – | 17.9 µM (active) | –
CN(C)c1ncc(S(=O)(=O)c2ccc(Cl)cc2)c(-c2ccccc2)n1 | 8.73 µM (not active) | – | –
CC(C)c1ccc(CNc2ccc([N+](=O)[O-])cn2)cc1 | 6.03 µM (active) | – | –
Cc1cc(C)nc(NS(=O)(=O)c2ccc(N/C=C3\CCCC3=O)cc2)n1 | – | 56.7 µM (active) | –
COCCSc1nnc(NC(=O)c2cc(C(=O)OC)cc([N+](=O)[O-])c2)s1 | – | 60.2 µM (active) | –
O=C(O)C1CCCCC1C(=O)Nc1cc(Cl)ccc1Cl (stereo not drawn) | – | 25 µM (active) | AC50 [3]: 25.1 µM (inconclusive)
CC(C)C[C@H](NC(=O)c1[nH]cnc1C(=O)N[C@@H](CCCCNC(=O)OC(C)(C)C)C(=O)OC(C)(C)C)C(=O)OC(C)(C)C | 3.89 µM (not active) | – | –
CC(C)NC(=O)NC(=O)CSc1nnc(COc2ccccc2F)n1C(C)C1CC2CCC1C2 (stereo not drawn) | – | – | EC50 [4]: 5.26 µM (active); EC50 [5]: 16.8 µM (active); EC50 [6]: 19 µM (active); EC50 [7]: 20.8 µM (active); EC50 [8]: > 150 µM (not active)
CCN(CC)c1ccc(NC(=O)CSc2ccsc2[N+](=O)[O-])c(C)c1 | – | 1.9 µM (active) | –
O=C(NCC1COc2ccccc2O1)C1C2C=CC3(CN(Cc4cccs4)C(=O)C13)O2 (stereo not drawn) | – | 7.96 µM (active) | –
N#CCOc1nc(N2CCCC2)nc(N2CCCC2)n1 | 14.3 µM (not active) | – | –
O=C(CN=C(S)N(Cc1ccccc1)Cc1cccs1)NCc1ccc(F)cc1 | 9.61 µM (not active) | – | –
COc1ccc(N2CCN(C(CNC(=O)C3CCCCC3)c3cccnc3)CC2)cc1 (stereo not drawn) | – | – | IC50 [9]: 27 µM (active); AC50 [3]: 7.08 µM (inconclusive); AC50 [10]: 0.355 µM (inconclusive)
Cc1c(NN=C2C(=O)NC(=S)NC2=O)c(=O)n(-c2ccccc2)n1C | – | – | IC50 [11]: 2.77 µM (active)
COC(=O)c1c(C)oc(C)c1S(=O)(=O)Nc1ccc(C(C)C)cc1 | 11.4 µM (not active) | – | –
Fc1ccc(CNc2nc(-c3ccccc3)nc3ccccc23)cc1 | 6.57 µM (not active) | – | EC50 [12]: > 300 µM (not active); EC50 [13]: > 300 µM (not active); EC50 [14]: 0.107 µM (active); EC50 [15]: > 30 µM (not active); IC50 [16]: 32.9 µM (active)
Nc1nnnn1CC(=O)N/N=C/c1cc([N+](=O)[O-])ccc1O | – | – | IC50 [11]: 3.13 µM (active)
COc1ccccc1/C=C/C=N/NC(=O)CCC1C(=O)NN=C1C (stereo not drawn) | – | 57.2 µM (active) | –
CCOc1cc(C(=O)N/N=C\c2cn(CC)nc2C)cc(OCC)c1OCC | > 50 µM (not active) | – | –
COc1cc(/C=N/Nc2ccccn2)ccc1O | – | – | IC50 [9]: 5.41 µM (active)
COc1cc(/C=N/NS(=O)(=O)c2ccc(Br)cc2)ccc1O | – | – | IC50 [9]: 19.4 µM (active); AC50 [17]: 1.7 µM (active)
